Five compounds from patent US6562819B2, “Compounds for inhibition of ceramide-mediated signal transduction” (The Regents of the University of California, priority 1994, dated 2003) can be followed below.

Broadly, the melting point is the temperature, or range, at which the solid turns liquid.

Data set [1] has as its system TNF-α production. The data set is described as follows: ELISA for TNF-α production by LPS stimulated human monocytes. Type of data set: cell-based. Conditions: Concentration of compound which inhibited the product of TNFα by 50% of control, read-out: TNFαIC50. Here is the method: Peripheral blood mononuclear cells were isolated from normal human blood on Hypaque-Ficoll density gradients. A portion of the isolated cells were further purified by adherence to gelatin coated flasks.
100 μl aliquots of monocytes were placed onto 96 well microtiter plates at a density of 5×10^5 cells/ml in RPMI-1640 medium containing 10% fetal bovine serum. After incubation for 24 hrs., various concentrations of the test compounds (FIG. 5) were added to the plated cells in a volume of 100 μl and incubated for 1 hr. After incubation, 1 μg/ml of LPS was added to each well.
18 hrs. after exposure of the plated cells to LPS, 100 μl of medium was collected from each well and assayed (by ELISA) for release of TNF-α, using recombinant human TNF as a standard. The sensitivity of the assay ranged from 10-100 pg/ml.
Background: An ELISA detects its analyte on a solid surface through an enzyme-linked reagent.

Data set [2] deals with TNF-α production. The data set is described as follows: LPS induced TNF-α production by human macrophages. The data set is classed as cell-based. The following applies: 0.1-1000 μM; result in words. The protocol: Human macrophages were cultured in 96 well microtiter plates and incubated with LPS. μAliquots of the stimulated cells were then incubated with, respectively, 0.1, 1, 10, 100 or 1000 μM of 1I-49, compound 37 and a commercially available isoquinoline (6,7-dimethoxy-1(2H)-isoquinoline from μAldrich Chemical; labelled S52-626-6 in FIG. 10) which, like the compounds of the invention, has an oxygen ortho to a ring nitrogen but, unlike the compounds of the invention, lacks a side chain substituent as described above (1L-49 is representative of the isoquinolone compounds of the invention having the side chain substituents described elsewhere above). The inhibitory efficacy of each compound was measured as a function of TNF-α reduction in μg/ml.

Read-outs that look alike come from different tables or passages of the source.

For the compound `CCOC(=O)CCCn1c(=O)c2ccccc2n(C)c1=O` [Compound 52, Ethyl 1-Methyl-1,4-dihydro-2,4-dioxo-3(2H)-quinazolinebutanoate], the IC50 in data set [1] (Monocyte) stood at 55 µM.
`CCCCCCn1c(=O)c2[nH]c(=O)[nH]c2n(C)c1=O` [Compound 24, 1-n-Hexyl-3-methyluric Acid]: the melting point was > 295 °C (dec.). Further, in data set [1] (Monocyte), the IC50 was 50 µM.
As for `CCCn1c(=O)n(CCCC(=O)OCC)c(=O)c2c1ncn2C` [Compound 31, ethyl 4-(2,3,6,7-tetrahydro-2,6-dioxo-7-methyl-3-n-propyl-1H-purin-1-yl)butonoic acid], the IC50 in data set [1] worked out at 5 µM.
`Cn1c(=O)[nH]c(=O)c2[nH]c(S)nc21` [Compound 25, 3-Methyl-8-thiouric Acid] had a melting point of more than 320 °C. The IC50 in data set [1] (Monocyte) was more than 200 µM.
With `COc1cc2cc[nH]c(=O)c2cc1OC` [S52, 626-6, 6,7-dimethoxy-1(2H)-isoquinoline], the “inhibition of LPS induced TNF-α production” value in data set [2] is on record as “mild inhibitory activity”.
